# Counter-ions that a name gives are not always drawn.
# Legend:
# Type in all cases: physicochemical
# [1] = Description: alcohol release from model compounds (III), (IV) and compound (V) in buffer, water and skin washings; conditions: 20 mg/mL mixture; after 3 d
# [2] = Example 28: release of methanol from methyl-β-3′-ketoglucuronide methyl ester, 0.1 M deuterated phosphate buffer, 10% D6-DMSO, 32° C.
# Description: In this example the rate of release of methanol from methyl (2R,3R,5S,6S)-3,5-dihydroxy-6-methoxy-4-oxotetrahydro-2H-pyran-2-carboxylate (methyl-β-3′-ketoglucuronide methyl ester) in D2O containing 10% D6-DMSO or in 0.1 M deuterated phosphate buffer solutions of differing pH containing 10% D6-DMSO or in D2O was determined.
# (§1) 0.1 M of pH 5.8 and 7.4 stock buffered solutions of sodium dihydrogen phosphate and disodium hydrogen phosphate were prepared in deuterated water (D2O).
# A stock solution of 20 mg of methyl-β-3′-ketoglucuronide methyl ester in 0.25 mL of D6-DMSO were prepared.
# To two parallel reaction vials, where indicated in the reaction table below, was added 0.05 mL of the glycoside substrate solutions in D6-DMSO and 0.55 mL of low or high pH 0.1M phosphate buffer in D2O and the mixtures incubated by shaking at 32° C. After times indicated in table below, the mixtures where analysed by ^1H-NMR in a 400 MHz instrument.
# [3] = Example 20: release of (S)-α-terpineol from (S)-α-terpineol-O-β-D-3′-ketoglucopyranoside, 0.1 M deuterated phosphate buffer, 33% D6-DMSO, 32° C.
# Description: In this example the rate of release of (S)-α-terpineol from (2R,3R,5S)-3,5-dihydroxy-2-(hydroxymethyl)-6-((5-(2-hydroxypropan-2-yl)-2-methylcyclohexyl)oxy) tetrahydro-4H-pyran-4-one ((S)-α-terpineol-O-β-D-3′-ketoglucopyranoside) in 0.1 M deuterated phosphate buffer solutions of differing pH containing 33% D6-DMSO was determined.
# as §1
# A stock solution of 10 mg of (S)-α-terpineol-O-β-D-3′-ketoglucopyranoside in 0.5 mL of D6-DMSO were prepared.
# To two parallel reaction vials, where indicated in the reaction table below, was added 0.20 mL of the glycoside substrate solutions in D6-DMSO and 0.40 mL of low or high pH 0.1M phosphate buffer in D2O and the mixtures incubated by shaking at 32° C. After times indicated in table below, the mixtures where analysed by ^1H-NMR in a 400 MHz instrument.
# [4] = Example 15: release of carvacrol from carvacrol-O-β-D-3′-ketoglucopyranoside, 0.1 M deuterated phosphate buffer, 20% D6-DMSO, 32° C.
# Description: In this example the rate of release of carvacrol from ((2R,3R,5S)-3,5-dihydroxy-2-(hydroxymethyl)-6-(5-isopropyl-2-methylphenoxy)tetrahydro-4H-pyran-4-one (carvacrol-O-β-D-3′-ketoglucopyranoside) in 0.1 M deuterated phosphate buffer solutions of differing pH containing 20% D6-DMSO was determined. 0.1 M of pH 5.8 and 7.4 stock buffered solutions of sodium dihydrogen phosphate and disodium hydrogen phosphate were prepared in deuterated water (D2O).
# A stock solution of 15 mg of carvacrol-O-β-D-3′ketoglucopyranoside in 1.0 mL of D6-DMSO were prepared.
# To two parallel reaction vials, where indicated in the reaction table below, was added 0.20 mL of the glycoside substrate solutions in D6-DMSO and […] of low or high pH 0.1M phosphate buffer in D2O or D2O and the mixtures incubated by shaking at 32° C. After times indicated in table below, the mixtures where analysed by ^1H-NMR in a 400 MHz instrument.
# [5] = Example 29: release of phenol from phenyl-O-β-D-3′-keto-6′-sulphatoglucopyranoside pyridinium salt, 0.1 M deuterated phosphate buffer, 15% D6-DMSO, 32° C.
# Description: In this example the rate of release of phenol from ((2R,3R,5S,6S)-3,5-dihydroxy-4-oxo-6-phenoxytetrahydro-2H-pyran-2-yl)methyl hydrogen sulfate pyridinium salt (phenyl-O-β-D-3′-keto-6′-sulphatoglucopyranoside pyridinium salt) in 0.1 M deuterated phosphate buffer solutions of differing pH containing 15% D6-DMSO was determined.
# as §1
# A stock solution of 20 mg of phenyl-O-β-D-3′-keto-6′-sulphatoglucopyranoside in 0.5 mL of D6-DMSO were prepared.
# To two parallel reaction vials, where indicated in the reaction table below, was added 0.10 mL of the glycoside substrate solutions in D6-DMSO and 0.60 mL of low or high pH 0.1M phosphate buffer in D2O and the mixtures incubated by shaking at 32° C. After times indicated in table below, the mixtures where analysed by ^1H-NMR in a 400 MHz instrument.
smiles,measurement,setting,value
CC(C)=CCC/C(C)=C/CO[C@@H]1O[C@H](CO)[C@@H](O)[C@H](O)[C@H]1O [geranyl-O-β-D-glucopyranoside],aroma of geraniol on opening the stoppered reaction vessel,[1],not present
"COC(=O)[C@H]1OC(OC)[C@H](O)C(=O)[C@@H]1O (stereo in doubt) [methyl-β-3′-ketoglucuronide methyl ester, methyl (2S,3R,5S,6S)-3,5-dihydroxy-6-methoxy-4-oxotetrahydro-2H-pyran-2-carboxylate]",methanol release (in words),[2]; 32° C.,generates methanol at both pH 5.8 and pH 7.4
same,% Conversion by 1H-NMR,"[2]; pH 5.8, 0 h",0%
same,% Conversion by 1H-NMR,"[2]; pH 5.8, 5 h",2%
same,% Conversion by 1H-NMR,"[2]; pH 5.8, 20 h",7%
same,% Conversion by 1H-NMR,"[2]; pH 5.8, 163 h (printed under the 72 h column)",23%
same,% Conversion by 1H-NMR,"[2]; pH 7.4, 0 h",0%
same,% Conversion by 1H-NMR,"[2]; pH 7.4, 5 h",15%
same,% Conversion by 1H-NMR,"[2]; pH 7.4, 20 h",38%
same,% Conversion by 1H-NMR,"[2]; pH 7.4, 72 h",100%
"CC1=CC[C@@H](C(C)(C)O[C@@H]2O[C@H](CO)[C@@H](O)C(=O)[C@H]2O)CC1 [(2R,3R,5S,6S)-3,5-dihydroxy-2-(hydroxymethyl)-6-((2-((S)-4-methylcyclohex-3-en-1-yl)propan-2-yl)oxy)tetrahydro-4H-pyran-4-one]",pH dependence of (S)-α-terpineol release (in words),[3]; 32° C.,"only slowly degraded at pH 5.8, but releases (S)-α-terpineol at a significantly higher rate at pH 7.4"
same,% Conversion by 1H-NMR,"[3]; pH 5.8, 0 h",0%
same,% Conversion by 1H-NMR,"[3]; pH 5.8, 3 h",0%
same,% Conversion by 1H-NMR,"[3]; pH 5.8, 20 h",0%
same,% Conversion by 1H-NMR,"[3]; pH 5.8, 95 h",0%
same,% Conversion by 1H-NMR,"[3]; pH 7.4, 0 h",0%
same,% Conversion by 1H-NMR,"[3]; pH 7.4, 3 h",5%
same,% Conversion by 1H-NMR,"[3]; pH 7.4, 20 h",28%
same,% Conversion by 1H-NMR,"[3]; pH 7.4, 95 h",77%
same,% Conversion by 1H-NMR,"[3]; pH 7.4, column head 167",85%
"Cc1ccc(C(C)C)cc1O[C@@H]1O[C@H](CO)[C@@H](O)C(=O)[C@H]1O [carvacrol-O-β-D-3′-ketoglucopyranoside, (2R,3R,5S,6S)-3,5-dihydroxy-2-(hydroxymethyl)-6-(5-isopropyl-2-methylphenoxy)tetrahydro-4H-pyran-4-one]",pH dependence of carvacrol release (in words),[4]; 32° C.,"only slowly degraded at pH 5.8, but releases carvacrol at a significantly higher rate at pH 7.4"
same,% Conversion by 1H-NMR,"[4]; pH 5.8, 1 h",2%
same,% Conversion by 1H-NMR,"[4]; pH 5.8, 5 h",<5%
same,% Conversion by 1H-NMR,"[4]; pH 5.8, 23 h",<5%
same,% Conversion by 1H-NMR,"[4]; pH 5.8, 69 h",<5%
same,% Conversion by 1H-NMR,"[4]; pH 7.4, 1 h",8%
same,% Conversion by 1H-NMR,"[4]; pH 7.4, 5 h",14%
same,% Conversion by 1H-NMR,"[4]; pH 7.4, 23 h",83%
same,% Conversion by 1H-NMR,"[4]; pH 7.4, 69 h",100%
"O=C1[C@@H](O)[C@H](Oc2ccccc2)O[C@H](COS(=O)(=O)O)[C@H]1O [((2R,3R,5S,6S)-3,5-dihydroxy-4-oxo-6-phenoxytetrahydro-2H-pyran-2-yl)methyl hydrogen sulfate pyridinium salt]",phenol release (in words),[5]; 32° C.,generates phenol at pH 7.4
same,% Conversion by 1H-NMR,"[5]; Reaction 1, pH 5.8, 0 h",1%
same,% Conversion by 1H-NMR,"[5]; Reaction 1, pH 5.8, 5 h",2%
same,% Conversion by 1H-NMR,"[5]; Reaction 1, pH 5.8, 20 h",2%
same,% Conversion by 1H-NMR,"[5]; Reaction 1, pH 5.8, 100 h",2%
same,% Conversion by 1H-NMR,"[5]; Reaction 2 (0.60 mL of pH 5.8 buffer), 0 h",4%
same,% Conversion by 1H-NMR,"[5]; Reaction 2 (0.60 mL of pH 5.8 buffer), 5 h",15%
same,% Conversion by 1H-NMR,"[5]; Reaction 2 (0.60 mL of pH 5.8 buffer), 20 h",38%
same,% Conversion by 1H-NMR,"[5]; Reaction 2 (0.60 mL of pH 5.8 buffer), 100 h",84%

# Source: patent publication US12509482B2, “3′-ketoglycoside compound for the slow release of a volatile alcohol” (GLYCOSCIENCE, S.L., priority 2020, dated 2025)
